Results from patent EP0085866A1, “Derivatives of benzo-1,2-thiazine-1,1-dioxide, a process for their preparation and pharmaceutical compositions containing the same” (priority 1982, dated 1983).
Where two headings read alike, the source gives them in different places.

Tests used:
[1] = Acute toxicity by single oral administration; format: in vivo; details: mouse, in vivo
Method: (§1) The toxicity by single administration has been determined by oral route in male mice IVA:NMRI (SPF), fasting, with water ad libitum 18 hours before the experiment. The substances under exam were suspended in 1% carboxymethylcellulose.

male mice IVA:NMRI (SPF) = experiment: Acute toxicity by single oral administration; format: in vivo; details: versus piroxicam
Method: as §1

[2] = system: oedema induced in the rat's paw by carrageenin; experiment: Antiinflammatory activity in the test of plantar edema by carrageenin; format: in vivo, Crl: CD(SD) male rats; details: for ED30: Rattus norvegicus, po; for antiinflammatory activity (in words): comparison with piroxicam, rat
Method: Crl: CD(SD) male rats, weighing 170-205 g, previously subjected to an acclimation period of at least one week through housing in environment with co.stant thermohygrometric conditions and fa sting with water ad libitum 18 hours before the start of the test, have been distributed "at ran dom" in groups of 5-6 animals each (4 groups cor responding to 4 different dose levels for each compound). A group of control animals has been treated only with the vehicle. […] Soc. Exp. Biol. Med. 111, 544, 1962). The volume of the treated paw has been measured by means of a water-mercury pletismometer according to Leuce P., Arch. Int. Pharmacodyn. 136, 237, 1962) immediately before and at different […] injection of the phlogogenic agent. The results have been expressed as ED30 values calculated on the logarithmic regression straight lines of the percent dose/inhibition of the oedema development, in turn determined from the ratio between the mean AUC value (area under the curve representing the development of the paw volume in the time) in the different treated animals groups and the respective control groups.

gastric mucosa = experiment: Gastrolesive activity (macroscopic control of the gastric mucosa); format: in vivo, Crl: CD(SD) male rats; details: for Therapeutic index UD3/ED30 / Gastrolesive activity UD3: oral route, exp. session I and II (r4-r7); for Therapeutic index UD3/ED30: rat; for Gastrolesive activity UD3: dose expected to give gastric lesion of total extension of 3 mm, 7 hours after administration; for improvement of tolerability (in words): versus parent compound piroxicam
Description: On the ground of such lines the calculation of UD3 values, that is a dose whereby a gastric lesion of the total extension of 3 mm is expected, has been performed.

[3] = system: plantar oedema by nystatin in the rat; experiment: Plantar oedema by nystatin; format: in vivo; details: on molar basis, times as active as piroxicam
Description: (§2) In other tests of direct comparison between piro xicam and CHF 1021, the latter confirmed its anti inflammatory activity, along with a good analgesic and antipiretic activity.

[4] = system: erythema by U.V. in the guinea pig; experiment: Erythema by U.V.; format: in vivo; details: on molar basis, times as active as piroxicam
Description: as §2

[5] = system: writhing test by phenylquinone in the mouse; experiment: Writhing test by phenylquinone; format: in vivo; details: on molar basis, times as active as piroxicam
Description: as §2

fever by beer's yeast = experiment: Fever by beer's yeast; format: in vivo, reat; details: on molar basis, times as active as piroxicam
Description: as §2

[6] = system: arthritis by adjuvant in the rat; experiment: Arthritis by adjuvant; format: in vivo; details: direct comparison with piroxicam
Description: as §2

[7] = Preliminary clinical data; format: in vivo
[8] = single administration, oral route, fasting male mice, suspended in 1% carboxymethylcellulose, interpolation on Probit paper, read-out: Approx. LD50
[9] = 1 hour before carrageenin, from inhibition of oedema AUC, exp. session I and II (r4-r7)

Q: For CN1C(C(=O)Nc2ccccn2)=C(OC(=O)C(C)(C)C)c2ccccc2S1(=O)=O [CHF 1021, 4-Pivaloyloxy-2-methyl-2H-1,2-benzothiazine-3-[N-(2-pyridyl)-carboxamide]-1,1-dioxide], which LD50 [1, 8] is on record?
A: 1800 mg/kg

Q: What about the “acute toxicity, lower in comparison to the reference compound” value (male mice IVA:NMRI (SPF)) of the same compound?
A: about 35%

Q: And the ED30 [2, 9]?
A: 7.9 µmol/kg

Q: What about the “antiinflammatory activity (in words)” value ([2]; oral route) of the same compound?
A: comparable to the one of the reference compound

Q: And the “Therapeutic index UD3/ED30” value (gastric mucosa)?
A: 12.3

Q: What about the “Gastrolesive activity UD3” value (gastric mucosa) of the same compound?
A: 97.2 µmol/kg

Q: What about the “ulcerogenic activity, times lower in comparison to the reference compound” value (gastric mucosa; versus piroxicam) of the same compound?
A: at least 10 times

Q: What about the “potency ratio (ratio between ED50 values)” value [3] of the same compound?
A: 1.52

Q: What about the “potency ratio (ratio between ED50 values)” value [4] of the same compound?
A: 0.49

Q: And the “potency ratio (ratio between ED50 values)” value [5]?
A: 0.72

Q: What about the “potency ratio (ratio between ED50 values)” value (fever by beer's yeast) of the same compound?
A: 0.71

Q: What about the “activity on the arthritis by adjuvant (in words)” value [6] of the same compound?
A: almost equally active

Q: And the “antiinflammatory activity in comparison with piroxicam (in words)” value [7]?
A: practically equally active

Q: And the “incidence of side effects relative to the reference drug” value ([7]; fraction of that of piroxicam)?
A: about 1/3

Q: What does the source list for CN1C(C(=O)Nc2nccs2)=C(OC(=O)C(C)(C)C)c2ccccc2S1(=O)=O [CHF 1047, 4-pivaloyloxy-2-methyl-2H-1,2-benzothiazine-3-[N-(2-thiazolyl)-carboxamide]-1,1-dioxide]?
A: LD50 [1, 8]: > 3000 mg/kg; ED30 [2, 9]: ~762 µmol/kg; antiinflammatory activity (in words) ([2]; oral route): very low; Therapeutic index UD3/ED30 (gastric mucosa): 0.2; Gastrolesive activity UD3 (gastric mucosa): 121.2 µmol/kg

Q: For CCCCC(=O)OC1=C(C(=O)Nc2ccccn2)N(C)S(=O)(=O)c2ccccc21 [CHF 1109], which LD50 ([1]; po) is on record?
A: 1100 mg/kg

Q: What about the ED30 [2, 9] of the same compound?
A: 7 µmol/kg

Q: And the “antiinflammatory activity (in words)” value ([2]; oral route)?
A: analogous or also slightly higher than the one of the parent compound

Q: And the “Therapeutic index UD3/ED30” value (gastric mucosa)?
A: 4.0

Q: What about the “Gastrolesive activity UD3” value (gastric mucosa) of the same compound?
A: 28.2 µmol/kg

Q: What about the “improvement of tolerability (in words)” value (gastric mucosa) of the same compound?
A: do not show an improvement

Q: With CCCC(=O)OC1=C(C(=O)Nc2ccccn2)N(C)S(=O)(=O)c2ccccc21 [CHF 1115] as the compound, how does the LD50 ([1]; po) read?
A: 880 mg/kg

Q: What about the ED30 [2, 9] of the same compound?
A: 5.7 µmol/kg

Q: And the “antiinflammatory activity (in words)” value ([2]; oral route)?
A: analogous or also slightly higher than the one of the parent compound

Q: What about the “Therapeutic index UD3/ED30” value (gastric mucosa) of the same compound?
A: 4.2

Q: And the “Gastrolesive activity UD3” value (gastric mucosa)?
A: 23.9 µmol/kg

Q: What about the ulcerogenic potency ratio (gastric mucosa; ratio to piroxicam taken as 1) of the same compound?
A: 0.88

Q: What about the “improvement of tolerability (in words)” value (gastric mucosa) of the same compound?
A: do not show an improvement

Q: With CN1C(C(=O)Nc2ccccn2)=C(O)c2ccccc2S1(=O)=O [piroxicam, reference compound] as the compound, how does the LD50 [1, 8] read?
A: 345 mg/kg

Q: And the ED30 [2, 9]?
A: 7.8 µmol/kg

Q: What about the “Antiinflammatory activity ED30” value ([2]; oral route, 1 hour before carrageenin, from inhibition of oedema AUC, exp. session I and II (r4-r7)) of the same compound?
A: 9.7 µmol/kg
